# Results reported in ChEMBL document CHEMBL4507288 (2021).
# Experiments:
# [1] = target: 5-hydroxytryptamine receptor 2C (Homo sapiens, UniProt P28335); test: GPCRScan assay: inhibition of 5-HT2C; design: radioligand conc. used [nm] 1.0 – 2.5, parental cells HEK T
# Histamine H2 receptor = Histamine H2 receptor (Homo sapiens, UniProt P25021); test: GPCRScan assay: inhibition of H2; design: radioligand conc. used [nm] 0.02 – 0.05, parental cells Stable HEK
# [2] = target: Wee1-like protein kinase (Homo sapiens) (UniProt P30291); settings: Compound concentration 1000.0 nM
# [3] = target: Receptor-interacting serine/threonine-protein kinase 2 (Homo sapiens) (UniProt O43353); settings: Compound concentration 1000.0 nM
# [4] = target: Mitogen-activated protein kinase 6 (Homo sapiens) (UniProt Q16659); settings: Compound concentration 1000.0 nM
# [5] = target: Tyrosine-protein kinase Mer (Homo sapiens) (UniProt Q12866); settings: Compound concentration 1000.0 nM
# [6] = tested on: Tyrosine-protein kinase ABL1 (Homo sapiens), P00519 [Q252H]; settings: Compound concentration 1000.0 nM
# [7] = tested on: Hepatocyte growth factor receptor (Homo sapiens), P08581 [M1250T]; settings: Compound concentration 1000.0 nM
# [8] = target: Tyrosine-protein kinase Lck (Homo sapiens) (UniProt P06239); settings: Compound concentration 1000.0 nM
# [9] = target: Activin receptor type-1-like (Homo sapiens) (UniProt P37023); settings: Compound concentration 1000.0 nM
# Activin receptor type-1-like (Homo sapiens), sequence (P37023 whole entry): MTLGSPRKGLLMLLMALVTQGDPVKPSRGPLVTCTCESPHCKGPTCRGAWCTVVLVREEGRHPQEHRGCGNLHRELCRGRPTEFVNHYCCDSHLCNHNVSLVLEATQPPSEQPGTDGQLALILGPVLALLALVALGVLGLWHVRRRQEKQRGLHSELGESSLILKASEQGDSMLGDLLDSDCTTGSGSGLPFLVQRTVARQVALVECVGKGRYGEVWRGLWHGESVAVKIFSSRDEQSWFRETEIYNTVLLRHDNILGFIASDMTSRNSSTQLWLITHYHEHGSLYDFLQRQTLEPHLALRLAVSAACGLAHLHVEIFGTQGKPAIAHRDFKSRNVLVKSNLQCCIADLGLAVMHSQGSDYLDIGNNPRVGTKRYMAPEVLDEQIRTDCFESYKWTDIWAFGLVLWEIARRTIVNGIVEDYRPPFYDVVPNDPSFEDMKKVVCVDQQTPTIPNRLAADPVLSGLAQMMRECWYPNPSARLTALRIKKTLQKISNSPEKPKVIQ
# [10] = target: Tyrosine-protein kinase Blk (Homo sapiens) (UniProt P51451); settings: Compound concentration 1000.0 nM
# [11] = target: Ephrin type-A receptor 2 (Homo sapiens) (UniProt P29317); settings: Compound concentration 1000.0 nM
# [12] = target: Insulin receptor (Homo sapiens) (UniProt P06213); settings: Compound concentration 1000.0 nM
# Insulin receptor (Homo sapiens), sequence (P06213 28-758 limits assumed): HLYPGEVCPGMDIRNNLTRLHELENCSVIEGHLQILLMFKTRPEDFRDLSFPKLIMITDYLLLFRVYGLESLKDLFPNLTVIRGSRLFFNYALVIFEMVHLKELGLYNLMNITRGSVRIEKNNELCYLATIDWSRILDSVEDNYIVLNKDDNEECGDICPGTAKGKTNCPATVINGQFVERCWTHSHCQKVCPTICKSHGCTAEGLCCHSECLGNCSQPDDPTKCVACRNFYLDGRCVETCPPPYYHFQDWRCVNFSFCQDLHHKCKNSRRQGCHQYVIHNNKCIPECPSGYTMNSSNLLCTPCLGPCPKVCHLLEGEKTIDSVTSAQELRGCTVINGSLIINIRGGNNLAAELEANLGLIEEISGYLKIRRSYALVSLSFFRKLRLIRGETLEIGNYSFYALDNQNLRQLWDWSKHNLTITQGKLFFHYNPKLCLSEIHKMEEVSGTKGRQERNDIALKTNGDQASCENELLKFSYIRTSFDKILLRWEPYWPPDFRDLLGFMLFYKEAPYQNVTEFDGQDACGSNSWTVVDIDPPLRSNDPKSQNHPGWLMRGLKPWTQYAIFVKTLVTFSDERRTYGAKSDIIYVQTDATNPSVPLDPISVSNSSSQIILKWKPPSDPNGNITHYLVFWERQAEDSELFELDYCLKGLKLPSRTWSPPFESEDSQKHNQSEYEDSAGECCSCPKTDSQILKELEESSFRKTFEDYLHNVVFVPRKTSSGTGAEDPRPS
# Insulin receptor (Homo sapiens), sequence (P06213 763-1382 limits assumed): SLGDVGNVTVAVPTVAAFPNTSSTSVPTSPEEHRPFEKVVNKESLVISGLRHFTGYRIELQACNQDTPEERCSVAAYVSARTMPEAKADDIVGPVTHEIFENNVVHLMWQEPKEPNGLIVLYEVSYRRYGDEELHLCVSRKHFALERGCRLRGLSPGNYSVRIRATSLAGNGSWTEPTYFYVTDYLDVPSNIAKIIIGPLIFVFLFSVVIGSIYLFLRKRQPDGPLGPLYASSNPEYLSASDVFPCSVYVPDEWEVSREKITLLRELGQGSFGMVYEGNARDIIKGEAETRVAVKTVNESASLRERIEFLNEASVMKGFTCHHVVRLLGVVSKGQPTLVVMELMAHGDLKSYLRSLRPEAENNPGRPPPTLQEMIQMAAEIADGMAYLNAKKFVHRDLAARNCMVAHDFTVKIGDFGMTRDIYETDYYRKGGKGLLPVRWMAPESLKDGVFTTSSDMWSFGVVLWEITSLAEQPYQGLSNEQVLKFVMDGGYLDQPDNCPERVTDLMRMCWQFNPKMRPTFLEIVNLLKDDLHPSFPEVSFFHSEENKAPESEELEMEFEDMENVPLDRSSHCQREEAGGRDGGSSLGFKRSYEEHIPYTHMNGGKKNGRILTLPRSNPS
# [13] = target: Cyclin-dependent kinase 15 (Homo sapiens) (UniProt Q96Q40); settings: Compound concentration 1000.0 nM
# [14] = target: Cyclin-dependent kinase 4 (Homo sapiens) (UniProt P11802); settings: Compound concentration 1000.0 nM
# [15] = target: Dual specificity mitogen-activated protein kinase kinase 1 (Homo sapiens) (UniProt Q02750); settings: Compound concentration 1000.0 nM
# [16] = target: Uncharacterized serine/threonine-protein kinase SBK3 (Homo sapiens) (UniProt P0C264); settings: Compound concentration 1000.0 nM
# [17] = target: MAP kinase-activated protein kinase 5 (Homo sapiens) (UniProt Q8IW41); settings: Compound concentration 1000.0 nM
# [18] = tested on: Epidermal growth factor receptor (Homo sapiens), P00533 [T790M]; settings: Compound concentration 1000.0 nM
# [19] = target: Mitogen-activated protein kinase kinase kinase 19 (Homo sapiens) (UniProt Q56UN5); settings: Compound concentration 1000.0 nM
# [20] = target: Serine/threonine-protein kinase MARK1 (Homo sapiens) (UniProt Q9P0L2); settings: Compound concentration 1000.0 nM
# [21] = target: Tyrosine-protein kinase CSK (Homo sapiens) (UniProt P41240); settings: Compound concentration 1000.0 nM
# [22] = target: Cyclin-dependent kinase 7 (Homo sapiens) (UniProt P50613); settings: Compound concentration 1000.0 nM
# Cyclin-dependent kinase 7 (Homo sapiens), sequence (P50613 whole entry, the tested form may be a part): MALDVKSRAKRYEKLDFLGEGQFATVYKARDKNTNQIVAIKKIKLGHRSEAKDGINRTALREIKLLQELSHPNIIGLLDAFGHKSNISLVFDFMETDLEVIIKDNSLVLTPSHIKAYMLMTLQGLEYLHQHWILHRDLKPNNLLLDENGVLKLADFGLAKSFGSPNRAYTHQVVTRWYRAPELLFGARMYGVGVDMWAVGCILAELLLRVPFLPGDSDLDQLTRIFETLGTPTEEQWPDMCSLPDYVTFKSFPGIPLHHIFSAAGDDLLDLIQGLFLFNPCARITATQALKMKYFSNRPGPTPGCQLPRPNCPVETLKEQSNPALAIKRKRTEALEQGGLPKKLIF
# [23] = target: LIM domain kinase 1 (Homo sapiens) (UniProt P53667); settings: Compound concentration 1000.0 nM
# LIM domain kinase 1 (Homo sapiens), sequence (P53667 whole entry, looked up, the tested form may be a part): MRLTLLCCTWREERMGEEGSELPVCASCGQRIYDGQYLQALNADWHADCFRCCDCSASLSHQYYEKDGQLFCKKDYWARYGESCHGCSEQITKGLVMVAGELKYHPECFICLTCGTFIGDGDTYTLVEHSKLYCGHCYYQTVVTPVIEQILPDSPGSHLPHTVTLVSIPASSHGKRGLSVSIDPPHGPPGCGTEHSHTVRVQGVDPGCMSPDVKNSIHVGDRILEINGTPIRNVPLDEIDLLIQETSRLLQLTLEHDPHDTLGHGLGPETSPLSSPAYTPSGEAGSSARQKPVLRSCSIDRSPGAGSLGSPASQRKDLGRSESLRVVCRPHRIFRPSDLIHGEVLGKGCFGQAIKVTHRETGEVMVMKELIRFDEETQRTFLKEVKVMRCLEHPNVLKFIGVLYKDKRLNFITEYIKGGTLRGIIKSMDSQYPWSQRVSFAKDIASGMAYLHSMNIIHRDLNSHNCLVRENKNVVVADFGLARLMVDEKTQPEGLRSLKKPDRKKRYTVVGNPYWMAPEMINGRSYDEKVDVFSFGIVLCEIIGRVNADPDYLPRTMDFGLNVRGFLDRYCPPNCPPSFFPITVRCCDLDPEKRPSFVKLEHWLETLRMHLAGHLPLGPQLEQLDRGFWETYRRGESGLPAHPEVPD
# [24] = tested on: Proto-oncogene tyrosine-protein kinase receptor Ret (Homo sapiens), P07949 [V804L]; settings: Compound concentration 1000.0 nM
# [25] = target: Protein kinase C delta type (Homo sapiens) (UniProt Q05655); settings: Compound concentration 1000.0 nM
# [26] = target: Myotonin-protein kinase (Homo sapiens) (UniProt Q09013); settings: Compound concentration 1000.0 nM
# [27] = target: Serine/threonine-protein kinase D3 (Homo sapiens) (UniProt O94806); settings: Compound concentration 1000.0 nM
# Serine/threonine-protein kinase D3 (Homo sapiens), sequence (O94806 whole entry): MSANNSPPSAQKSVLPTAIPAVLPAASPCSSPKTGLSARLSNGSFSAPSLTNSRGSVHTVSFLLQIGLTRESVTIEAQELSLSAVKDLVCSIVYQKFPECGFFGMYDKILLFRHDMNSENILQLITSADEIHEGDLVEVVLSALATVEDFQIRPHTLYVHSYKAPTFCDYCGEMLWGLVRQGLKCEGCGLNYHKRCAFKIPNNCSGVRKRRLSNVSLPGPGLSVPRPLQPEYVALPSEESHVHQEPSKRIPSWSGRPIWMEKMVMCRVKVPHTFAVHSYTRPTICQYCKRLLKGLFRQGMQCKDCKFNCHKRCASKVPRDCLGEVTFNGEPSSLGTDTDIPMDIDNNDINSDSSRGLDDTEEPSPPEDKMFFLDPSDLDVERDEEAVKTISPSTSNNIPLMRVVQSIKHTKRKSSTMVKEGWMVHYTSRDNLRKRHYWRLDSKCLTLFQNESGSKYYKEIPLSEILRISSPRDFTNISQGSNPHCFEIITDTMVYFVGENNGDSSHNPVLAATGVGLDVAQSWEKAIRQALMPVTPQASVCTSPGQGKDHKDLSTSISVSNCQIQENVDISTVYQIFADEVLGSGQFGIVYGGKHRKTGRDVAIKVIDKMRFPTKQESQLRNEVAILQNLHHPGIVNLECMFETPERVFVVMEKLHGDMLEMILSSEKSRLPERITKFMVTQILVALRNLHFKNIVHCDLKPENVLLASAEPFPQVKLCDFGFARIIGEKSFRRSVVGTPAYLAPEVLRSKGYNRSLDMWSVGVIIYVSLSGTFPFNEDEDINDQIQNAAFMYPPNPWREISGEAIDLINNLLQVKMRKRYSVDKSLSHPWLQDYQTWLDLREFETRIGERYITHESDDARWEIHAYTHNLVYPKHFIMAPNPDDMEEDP
# [28] = target: RAC-alpha serine/threonine-protein kinase (Homo sapiens) (UniProt P31749); settings: Compound concentration 1000.0 nM
# RAC-alpha serine/threonine-protein kinase (Homo sapiens), sequence (P31749 whole entry): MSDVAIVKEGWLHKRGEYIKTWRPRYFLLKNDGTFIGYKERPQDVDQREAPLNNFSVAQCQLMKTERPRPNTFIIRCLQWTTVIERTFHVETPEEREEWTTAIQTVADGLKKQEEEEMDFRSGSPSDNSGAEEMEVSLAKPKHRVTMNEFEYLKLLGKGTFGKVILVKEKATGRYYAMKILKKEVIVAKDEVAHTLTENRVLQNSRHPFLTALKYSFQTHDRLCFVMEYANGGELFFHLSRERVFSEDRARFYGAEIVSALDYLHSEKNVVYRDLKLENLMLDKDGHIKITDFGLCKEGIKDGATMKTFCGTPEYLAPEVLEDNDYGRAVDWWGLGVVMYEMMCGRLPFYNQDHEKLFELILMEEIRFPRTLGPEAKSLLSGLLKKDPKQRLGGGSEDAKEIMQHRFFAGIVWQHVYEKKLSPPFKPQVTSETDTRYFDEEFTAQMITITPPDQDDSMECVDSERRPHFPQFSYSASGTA
# [29] = target: Serine/threonine-protein kinase TNNI3K (Homo sapiens) (UniProt Q59H18); settings: Compound concentration 1000.0 nM
# [30] = target: TRAF2 and NCK-interacting protein kinase (Homo sapiens) (UniProt Q9UKE5); settings: Compound concentration 1000.0 nM
# [31] = target: Ribosomal protein S6 kinase alpha-2 (Homo sapiens) (UniProt Q15349); settings: Compound concentration 1000.0 nM
# [32] = tested on: Receptor-type tyrosine-protein kinase FLT3 (Homo sapiens), P36888 [N841I]; settings: Compound concentration 1000.0 nM
# [33] = target: Phosphorylase b kinase regulatory subunit alpha, liver isoform (Homo sapiens) (UniProt P46019); settings: Compound concentration 1000.0 nM
# [34] = tested on: Phosphatidylinositol 4,5-bisphosphate 3-kinase catalytic subunit alpha isoform (Homo sapiens), P42336 [E542K]; settings: Compound concentration 1000.0 nM
# [35] = target: Tyrosine-protein kinase JAK2 (Homo sapiens) (UniProt O60674); settings: Compound concentration 1000.0 nM
# [36] = target: 3-phosphoinositide-dependent protein kinase 1 (Homo sapiens) (UniProt O15530); settings: Compound concentration 1000.0 nM
# [37] = target: Phosphatidylinositol 4,5-bisphosphate 3-kinase catalytic subunit beta isoform (Homo sapiens) (UniProt P42338); settings: Compound concentration 1000.0 nM
# [38] = target: Ephrin type-A receptor 5 (Homo sapiens) (UniProt P54756); settings: Compound concentration 1000.0 nM
# [39] = target: Ribosomal protein S6 kinase alpha-4 (Homo sapiens) (UniProt O75676); settings: Compound concentration 1000.0 nM
# [40] = target: Mitogen-activated protein kinase 15 (Homo sapiens) (UniProt Q8TD08); settings: Compound concentration 1000.0 nM
# [41] = target: Mitogen-activated protein kinase kinase kinase 1 (Homo sapiens) (UniProt Q13233); settings: Compound concentration 1000.0 nM
# [42] = target: Mitogen-activated protein kinase kinase kinase kinase 5 (Homo sapiens) (UniProt Q9Y4K4); settings: Compound concentration 1000.0 nM
# [43] = target: Mitogen-activated protein kinase kinase kinase kinase 1 (Homo sapiens) (UniProt Q92918); settings: Compound concentration 1000.0 nM
# Mitogen-activated protein kinase kinase kinase kinase 1 (Homo sapiens), sequence (Q92918 whole entry, looked up): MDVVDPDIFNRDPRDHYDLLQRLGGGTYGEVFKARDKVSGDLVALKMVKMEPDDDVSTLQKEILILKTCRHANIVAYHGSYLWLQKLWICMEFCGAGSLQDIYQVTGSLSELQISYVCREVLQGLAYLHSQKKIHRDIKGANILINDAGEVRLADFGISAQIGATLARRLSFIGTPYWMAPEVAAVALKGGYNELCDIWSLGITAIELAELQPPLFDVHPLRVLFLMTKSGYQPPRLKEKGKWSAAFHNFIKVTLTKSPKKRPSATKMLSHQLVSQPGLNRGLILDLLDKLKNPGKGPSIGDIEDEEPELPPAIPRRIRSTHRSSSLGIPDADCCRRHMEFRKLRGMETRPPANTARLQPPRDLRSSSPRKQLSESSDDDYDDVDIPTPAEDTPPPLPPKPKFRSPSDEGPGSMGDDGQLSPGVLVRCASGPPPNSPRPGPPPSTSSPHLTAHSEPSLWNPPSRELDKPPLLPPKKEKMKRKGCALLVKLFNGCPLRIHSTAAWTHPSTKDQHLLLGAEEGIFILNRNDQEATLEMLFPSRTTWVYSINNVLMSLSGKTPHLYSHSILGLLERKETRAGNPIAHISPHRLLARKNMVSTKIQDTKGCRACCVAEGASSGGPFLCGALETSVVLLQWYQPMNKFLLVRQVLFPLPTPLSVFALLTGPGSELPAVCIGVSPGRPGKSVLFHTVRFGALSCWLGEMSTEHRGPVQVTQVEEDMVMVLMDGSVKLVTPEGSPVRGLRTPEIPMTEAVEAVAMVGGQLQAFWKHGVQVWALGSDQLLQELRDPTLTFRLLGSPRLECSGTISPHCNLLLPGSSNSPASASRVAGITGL
# [44] = target: Mitogen-activated protein kinase kinase kinase 12 (Homo sapiens) (UniProt Q12852); settings: Compound concentration 1000.0 nM
# [45] = target: Serine/threonine-protein kinase PAK 6 (Homo sapiens) (UniProt Q9NQU5); settings: Compound concentration 1000.0 nM
smiles,measurement,setting,value
CC(C)(C)OC(=O)N1CCCC1CNC1CCC(c2cc(F)ccc2F)(S(=O)(=O)c2ccc(Cl)cc2)CC1 (stereo unspecified) [GSI-NC],Ki,[1],0.516 µM
same,Ki,Histamine H2 receptor,3.79 µM
O=S(=O)(NC1CCC(c2cc(F)ccc2F)(S(=O)(=O)c2ccc(Cl)cc2)CC1)C(F)(F)F (stereo unspecified) [MRK-560],residual activity,[2],90%
same,residual activity,[3],84%
same,residual activity,[4],100%
same,residual activity,[5],99%
same,residual activity,[6],95%
same,residual activity,[7],84%
same,residual activity,[8],100%
same,residual activity,[9],100%
same,residual activity,[10],89%
same,residual activity,[11],84%
same,residual activity,[12],95%
same,residual activity,[13],100%
same,residual activity,[14],100%
same,residual activity,[15],100%
same,residual activity,[16],93%
same,residual activity,[17],93%
same,residual activity,[18],93%
same,residual activity,[19],84%
same,residual activity,[20],100%
same,residual activity,[21],100%
same,residual activity,[22],100%
same,residual activity,[23],86%
same,residual activity,[24],84%
same,residual activity,[25],100%
same,residual activity,[26],100%
same,residual activity,[27],100%
same,residual activity,[28],5%
same,residual activity,[29],100%
same,residual activity,[30],82%
same,residual activity,[31],95%
same,residual activity,[32],100%
same,residual activity,[33],91%
same,residual activity,[34],100%
same,residual activity,[35],83%
same,residual activity,[36],100%
same,residual activity,[37],100%
same,residual activity,[38],100%
same,residual activity,[39],100%
same,residual activity,[40],94%
same,residual activity,[41],100%
same,residual activity,[42],69%
same,residual activity,[43],96%
same,residual activity,[44],100%
same,residual activity,[45],100%
